Key:
Assay type in all cases: cell-based
HRV A16 = HRV A16 CPE inhibition assay; conditions: Human rhinovirus sp.; HRV A16, cytopathic effect inhibition
Method: (§1) Bioactivity of the Compounds of the Invention was Determined Using the Following Methods. Determination of Drug Efficacy Against Picornaviruses Using Cytopathic Effect (CPE) Inhibition Assay
(§2) In the assay, HeLa (human cervical cancer cells), MRC-5 (human fetal lung fibroblast cells), and RD cells (derived from human rhabdomyosarcoma) were employed. For comparison, ribavirin (Riv), Pleconaril (pleco), and […] (BTA) were used as controls. Reagents were dissolved at a concentration of 10-40 mg/ml in 100% dimethyl sulfoxide (DMSO). Water-soluble reagents were dissolved in PBS (−) solution and stored at −20° C. On the day of the experiment, they were used in 3 fold to 5 fold concentrations in such a manner that the concentration of dimethyl sulfoxide in each well was between 0.5% and 1%.
(§3) Pharmaceutical efficacy was determined using a virus-induced cytopathic effect (CPE) inhibition assay. In this regard, after cells suitable for viruses were grown in 96-well plates, dilutions of viruses in DME supplemented with 2% FBS (DME/2% FBS) or MEM supplemented with 2% FBS (MEM/2% FBS) were inoculated in an amount of […] with a concentration corresponding to 100 CCID50 (50% cell culture infective dose) into each well of the plates, and incubated for 30 min-1 hr at 33° C. or 37° C. to allow the viruses to adsorb onto the cells. The culture medium was removed before aliquots of drug dilutions with various concentrations were added in an amount of 100 μl to each well. While HRV (human rhinovirus) was grown at 33° C., the other viruses were incubated in a 37° C. CO2 incubator for 2-3 days. Alternatively, the cells were cultured for 2-3 days without removal of the medium after they were added with 50 μl of each drug dilution having a 2-fold higher concentration and then with 50 μl of the virus dilution. Viruses were incubated in host HeLa cells at 37° C. for 2-3 days in DME/2% or MEM/2% FBS.
(§4) For HeLa cells, the drugs were measured for EC50 (50% maximal effective concentration), which is the concentration of a drug inducing a response halfway between the baseline and maximum, using an MTT assay. With regard to RD and MRC-5 cells, CPE was determined using FDA (Fluorescein diacetate) or MTT. In order to determine the effect of drug toxicity on efficacy results, at the time of inoculation with the virus, mock-infection was also included. A virus-free medium was added to a cell culture, which was then subjected to the same treatment as the mock-infected cells inoculated with the virus. That is, the medium was removed after one hour of incubation, and dilutions of drugs in the medium were added once more. Following incubation for 2-3 days, the cells were observed under a microscope and the drugs were determined for CC50 (50% cytotoxic concentration) at which 50% of the cells were killed, using an MTT assay in which counts of viable cells in mock-infected wells containing drugs were compared to those of viable cells in control wells containing no drugs. In an FDA hydrolysis assay, FDA was added to each well after removal of the medium, and incubated for 20-30 min before fluorescence intensity was measured using a spectrofluorometer to determine CPE in the same manner as in MTT.
(§5) In addition, antiviral effects can be calculated using Mathematical Formula 2 below: Antiviral Effect=[A(Drug/Virus)−A(Virus Control)/A(Cell control)−A(Virus Control)]
(§6) If the survival rate is 100%, its antiviral effect is 100% whereas if the survival rate is 0%, its antiviral effect is none. […]
(§7) Specifically, cells grown to confluence in 96-well plates were infected with 100 50% cell culture infected doses (CCID50) of virus. After an adsorption period of 2 hrs at 37° C., the virus was removed and serial dilutions of the compounds were added. […] After removal of the medium, 90 μl of a culture medium and 10 μl of MTS-phenazine methosulfate (Promega, Leiden, The Netherlands) were added to each well. […]

HRV B14 = HRV B14 CPE inhibition assay; conditions: Human rhinovirus sp.; HRV B14, cytopathic effect inhibition
Method: as §1, §2, §3, §4, §5, §6, §7

C15_C3 REPLICON = assay: C15_C3 replicon assay
[1] = Cytotoxicity (CC50) in mock-infected cells, MTT assay; conditions: human, HeLa cells (mock-infected), 50% cytotoxic concentration, read-out: CYTOTOX (CC50 μM)
Method: as §4
That is, the survival rate (% survival) of mock-infected cells for cytotoxicity measurement was calculated using the Mathematical Formula 1 below: Cell Drug=Survival by [A(Drug)−A(Background solution)/A(Cell control)−A(Background×100% Solution)]
While 100% cell survival means no cytotoxicity of the drug, the highest cytotoxicity is reflected by 0% cell survival. The 50% cytotoxic concentration was defined as the concentration required to reduce the cell number by 50%. This concentration of the drug is represented as CC50. Higher values mean lower cytotoxicity. […]
In Mathematical Formulae 3 and 4 above, • OD (CC) represents the OD of the background cell culture that is neither induced by a virus nor treated by chemical, • OD (VC) represents the OD of the control cell culture that is induced by a virus but not treated by chemical, • OD (Virus+Compound) represents the OD of the cell culture infected by a virus that has been treated with a concentrated compound, • OD (Compound) represents the OD of the cell culture that has been treated with a concentrated compound only, and • OD (Blank) represents the OD of the well to which only the cell culture has been added.
The effective concentration (EC50) represents the concentration of a drug at which 50% of cells are allowed to survive by CPE of an induced virus, and the cytotoxicity concentration (CC50) represents the concentration of a drug at which a compound has killed 50% of cells, and they were calculated by the logarithmic interpolation.

HRV A29 = HRV A29 CPE inhibition assay; conditions: Human rhinovirus sp.; HRV A29, cytopathic effect inhibition
Method: as §1, §2, §3, §4, §5, §6, §7

SMILES	EC50 (HRV A16)	EC50 (HRV B14)	EC50 (C15_C3 REPLICON)	CC50 [1]	EC50 (HRV A29)
Cc1cc(S(=O)(=O)N2CCN(C)CC2)[nH]c1C(=O)NC12C(=O)c3c(N)cccc3C1(O)Oc1cc([C@H]3C[C@@H]3C)ccc12 (mixture of isomers) [Example 9, N-(1-Amino-4b-hydroxy-7-((trans)-2-methylcyclopropyl)-10-oxo-4b,10-dihydro-9bH-indeno[1,2-b]benzofuran-9b-yl)-3-methyl-5-((4-methylpiperazin-1-yl)sulfonyl)-1H-pyrrole-2-carboxamide]	0.02 µM	0.016 µM	1.09 µM	25.6 µM	–
CCC(C)c1ccc2c(c1)OC1(O)c3cccc(N)c3C(=O)C21NC(=O)c1[nH]cc(S(C)(=O)=O)c1C (stereo not shown) [Example 23, N-(1-amino-7-(sec-butyl)-4b-hydroxy-10-oxo-4b,10-dihydro-9bH-indeno[1,2-b]benzofuran-9b-yl)-3-methyl-4-(methylsulfonyl)-1H-pyrrole-2-carboxamide]	0.071 µM	0.016 µM	0.633 µM	22.4 µM	–
Cc1c(C(=O)NC23C(=O)c4c(N)cccc4C2(O)Oc2cc(C(C)C)ccc23)[nH]c(S(=O)(=O)NCCN(C)C)c1C (stereo not shown) [Example 4, N-(1-amino-4b-hydroxy-7-isopropyl-10-oxo-4b,10-dihydro-9bH-indeno[1,2-b]benzofuran-9b-yl)-5-(N-(2-(dimethylamino)ethyl)sulfamoyl)-3,4-dimethyl-1H-pyrrole-2-carboxamide]	0.056 µM	0.016 µM	2.39 µM	8.58 µM	–
C[C@H](c1ccc2c(c1)O[C@]1(O)c3cccc(N)c3C(=O)[C@]21NC(=O)[C@H]([C@H](C)O)N(C)C)C1CC1 [Example 15, (2S,3S)—N-((4bR,9bR)-1-amino-7-((S)-1-cyclopropylethyl)-4b-hydroxy-10-oxo-4b,10-dihydro-9bH-indeno[1,2-b]benzofuran-9b-yl)-2-(dimethylamino)-3-hydroxybutanamide]	0.213 µM	0.016 µM	0.264 µM	45.2 µM	–
C[C@H](O)[C@@H](C(=O)NC12C(=O)c3c(N)cccc3C1(O)Oc1cc([C@H](C)C3CC3)ccc12)N(C)C (stereo partly drawn) [Example 10, (2S,3S)—N-(1-amino-7-((R)-1-cyclopropylethyl)-4b-hydroxy-10-oxo-4b,10-dihydro-9bH-indeno[1,2-b]benzofuran-9b-yl)-2-(dimethylamino)-3-hydroxybutanamide]	0.661 µM	0.016 µM	0.632 µM	29.2 µM	–
Cc1c(S(C)(=O)=O)c[nH]c1C(=O)NC12C(=O)c3c(N)cccc3C1(O)Oc1cc(C3CCC3C)ccc12 (stereo not shown) [Example 7, N-(1-amino-4b-hydroxy-7-(2-methylcyclobutyl)-10-oxo-4b,10-dihydro-9bH-indeno[1,2-b]benzofuran-9b-yl)-3-methyl-4-(methylsulfonyl)-1H-pyrrole-2-carboxamide]	0.065 µM	–	1.62 µM	12 µM	–
Cc1[nH]c(C(=O)NC23C(=O)c4c(N)cccc4C2(O)Oc2cc(C(C)C)ccc23)c(C)c1S(N)(=O)=O (stereo not shown) [Example 25, N-(1-amino-4b-hydroxy-7-isopropyl-10-oxo-4b,10-dihydro-9bH-indeno[1,2-b]benzofuran-9b-yl)-3,5-dimethyl-4-sulfamoyl-1H-pyrrole-2-carboxamide]	0.14 µM	0.016 µM	2.04 µM	27 µM	–
Cc1cc(S(=O)(=O)N2CC[C@H](N(C)C)C2)[nH]c1C(=O)NC12C(=O)c3c(N)cccc3C1(O)Oc1cc([C@H]3C[C@@H]3C)ccc12 (mixture of isomers) [Example 11, N-(1-amino-4b-hydroxy-7-((1S,2S)-2-methylcyclopropyl)-10-oxo-4b,10-dihydro-9bH-indeno[1,2-b]benzofuran-9b-yl)-5-(((S)-3-(dimethylamino)pyrrolidin-1-yl)sulfonyl)-3-methyl-1H-pyrrole-2-carboxamide]	0.023 µM	0.016 µM	2.54 µM	12.1 µM	–
Cc1c(S(C)(=O)=O)c[nH]c1C(=O)NC12C(=O)c3c(N)cccc3C1(O)Oc1cc([C@]3(C)C[C@@H]3C)ccc12 (stereo partly drawn) [Example 6, N-(1-amino-7-((1R,2S)-1,2-dimethylcyclopropyl)-4b-hydroxy-10-oxo-4b,10-dihydro-9bH-indeno[1,2-b]benzofuran-9b-yl)-3-methyl-4-(methylsulfonyl)-1H-pyrrole-2-carboxamide]	0.046 µM	0.016 µM	1.18 µM	19.1 µM	–
Cc1c(S(C)(=O)=O)c[nH]c1C(=O)NC12C(=O)c3c(N)cccc3C1(O)Oc1cc([C@@H]3C[C@@H]3C)ccc12 (stereo partly drawn) [Example 16, N-(1-amino-4b-hydroxy-7-((1R,2S)-2-methylcyclopropyl)-10-oxo-4b,10-dihydro-9bH-indeno[1,2-b]benzofuran-9b-yl)-3-methyl-4-(methylsulfonyl)-1H-pyrrole-2-carboxamide]	0.199 µM	0.016 µM	1.82 µM	37.7 µM	0.104 µM
Cc1c(S(C)(=O)=O)c[nH]c1C(=O)N[C@]12C(=O)c3c(N)cccc3[C@@]1(O)Oc1cc([C@@H]3C[C@H]3C)ccc12 [Example 1, N-((4bR,9bR)-1-amino-4b-hydroxy-7-((1R,2R)-2-methylcyclopropyl)-10-oxo-4b,10-dihydro-9bH-indeno[1,2-b]benzofuran-9b-yl)-3-methyl-4-(methylsulfonyl)-1H-pyrrole-2-carboxamide]	0.228 µM	0.016 µM	4 µM	34.7 µM	0.071 µM
C[C@@H]1C[C@@H]1c1ccc2c(c1)O[C@]1(O)c3cccc(N)c3C(=O)[C@]21NC(=O)CN1CCC1 [Example 2, N-((4bR,9bR)-1-amino-4b-hydroxy-7-((1S,2R)-2-methylcyclopropyl)-10-oxo-4b,10-dihydro-9bH-indeno[1,2-b]benzofuran-9b-yl)-2-(azetidin-1-yl)acetamide]	0.092 µM	0.016 µM	0.853 µM	27.3 µM	–

— US12286423B2, “Antiviral 1,3-di-oxo-indene compounds” (Novartis AG, priority 2020, dated 2025)
